# Data as given in patent publication EP4748839A1 (CSPC Zhongqi Pharmaceutical Technology (Shijiazhuang) Co., …, priority 2023, dated 2025).
# Experiments:
# [1] = In vivo pharmacokinetic assay in mice; conditions: mouse; ICR mice (female), oral gavage 10 mg/kg, plasma
# Protocol: Experimental animals: ICR mice (female, 22-25 g), purchased from Beijing Vital River Laboratory Animal Technology Co., Ltd.
# Experimental procedure: ICR mice were administered the test compounds by gavage. Whole blood samples of the mice were collected at 15 min, 0.5 h, 1 h, 2 h, 4 h, 8 h and 24 h after administration and centrifuged to isolate plasma. The compound concentration was measured by LC-MS/MS, and pharmacokinetic parameters such as Area Under the Concentration-Time Curve (AUC) were calculated using Winnolin software.
# Oral gavage dose: 10 mg/kg.
# Measurement method: Quantitative analysis was carried out in the LC/MS/MS system after pretreatment with a protein precipitation method.
# [2] = molecular target: T1, GLP-1R (Homo sapiens, UniProt P43220); assay: GLP-1R agonistic effect in GLP1R-cAmp-Luc cells (luciferase reporter; titled 'Enzymatic assay'); format: cell-based; conditions: for EC50: 4 hours incubation, firefly luciferin signal; for EC50 of Positive reference / EC50 of Compound of the Present Application: Positive reference is PF-06882961
# T1 construct: expressed in transfected cells
# Protocol: The GLP-1R agonistic effects of the test compounds were determined using GLP1R-cAmp-Luc cells. 1) The test compound was dissolved in DMSO and mixed well until the test compound was completely dissolved. The test compounds were dissolved in DMSO to prepare 10 mM stock solutions. All compounds were diluted with DMEM medium (high sugar, Puromycin^+, Hygromycin B^+) to an initial concentration of 1250 nM, and then subjected to 5-fold serial dilution to a total of 7 concentration gradients. The GLP1R-cAmp-Luc cells were seeded in white-wall 96-well cell culture plates at a density of 1×10^5/mL, with 90 µL cell suspension per well; the test compound at each of the 7 concentration gradients was added at 10 µL per well, with the actual initial working concentration of 125 nM; and the cells were placed in a 37 °C, 5% CO2 cell incubator for 4 hours; 2) 100 µL of luciferin potassium salt solution diluted to 300 µg/mL in PBS was added to each well at a working concentration of 150 µg/mL and incubated at room temperature for 30 minutes; 3) fluorescence signals of firefly luciferin were measured with a multifunctional microplate reader (PerkinElmer, Nivo); and the fluorescence values were processed using GraphPad Prism software to calculate EC50 values.
# [3] = test system: C57BL/6 hGLP1R transgenic mice; assay: Determination of food intake inhibition rate; format: in vivo; conditions: C57BL/6 hGLP1R mice, gavage, 2mpk, administrated once
# Protocol: The food intake of C57BL/6 hGLP1R transgenic mice in each cage was measured at 18:00 on the day before administration, and the remaining weight of food was measured at 8: 00 on the next day (day 0) The difference between the two measurements was recorded as the baseline food intake weight. The mice were randomly grouped (test compound group and vehicle group) according to the baseline food intake and body weight. The food intake and body weight of the mice at 0 h were measured before administration. The mice were administered by gavage at 20:00 on day 0, and then the food intake and body weight of the mice were measured at specific time points. The phase (within a defined period of time) food intake, phase food intake rate, cumulative (after administration to a specific time point) food intake, cumulative food intake rate and body weight were finally statistically analyzed to evaluate the food intake inhibitory effect of the compounds. Cumulative Food intake (g) = (mbefore)−(mafter). [formula]
# "m before" is the weight of food before food intaking for the period of time, and "m after" is the weight of food after food intaking for the period of time. Food intake inhibition rate (%) = (1−(madministrationgroup)/(mvehiclegroup))*100. [formula]
# "m administration group" is the cumulative food intake of the administration group during the period of time, and "m vehicle group" is the cumulative food intake of the vehicle group during the period of time.
# T1 sequence (P43220 24-463, species assumed): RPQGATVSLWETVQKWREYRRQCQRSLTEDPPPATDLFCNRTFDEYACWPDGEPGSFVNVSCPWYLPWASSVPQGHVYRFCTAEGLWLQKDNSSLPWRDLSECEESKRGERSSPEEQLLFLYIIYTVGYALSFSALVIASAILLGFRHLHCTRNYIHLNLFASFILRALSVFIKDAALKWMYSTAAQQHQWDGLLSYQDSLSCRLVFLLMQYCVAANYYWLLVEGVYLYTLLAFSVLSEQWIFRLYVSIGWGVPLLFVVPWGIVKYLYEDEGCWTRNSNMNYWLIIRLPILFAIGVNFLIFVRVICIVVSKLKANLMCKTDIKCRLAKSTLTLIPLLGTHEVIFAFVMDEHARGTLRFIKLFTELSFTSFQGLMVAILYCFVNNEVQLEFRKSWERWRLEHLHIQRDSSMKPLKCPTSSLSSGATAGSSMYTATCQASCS
SMILES,AUC(0-t) [1] [ng·h/mL],EC50 [2] [nM],EC50 of Positive reference / EC50 of Compound of the Present Application [2],cumulative food intake inhibition rate 0-2.5 hours ([3]; 0-2.5 hours) [%],cumulative food intake inhibition rate 0-5 hours ([3]; 0-5 hours) [%],cumulative food intake inhibition rate 0-12 hours ([3]; 0-12 hours) [%]
"COc1cc(C(=O)O)cc2c1nc(Cc1c(F)cc(-c3ccc(F)c(OCc4ccc(Cl)cc4F)c3)c3c1CCO3)n2C[C@@H]1CCO1 [Compound 105, (S)-2-((7-(3-((4-chloro-2-fluorobenzyl)oxy)-4-fluorophenyl)-5-fluoro-2,3-dihydrobenzofuran-4-yl)methyl)-4-methoxy-1-(oxetan-2-ylmethyl)-1H-benzo[d]imidazole-6-carboxylic acid]",6900,1 to 5,–,–,–,–
"COc1cc(C(=O)O)cc2c1nc(Cc1c(F)cc(-c3ccc(F)c(OCc4ccc(C)cc4F)n3)c3c1CCO3)n2C[C@@H]1CCO1 [Compound 132, (S)-2-((7-(5-fluoro-6-((2-fluoro-4-methylbenzyl)oxy)pyridin-2-yl)-5-fluoro-2,3-dihydrobenzofuran-4-yl)methyl)-4-methoxy-1-(oxetan-2-ylmethyl)-1H-benzo[d]imidazole-6-carboxylic acid]",19500,≤ 1,Ratio ≥10,–,–,–
"O=C(O)c1ccc2nc(Cc3c(F)cc(-c4cccc(OCc5ccc(Cl)cc5F)n4)c4c3CCO4)n(CC3(CF)CC3)c2c1 [Compound 14, 2-((7-(6-((4-chloro-2-fluorobenzyl)oxy)pyridin-2-yl)-5-fluoro-2,3-dihydrobenzofuran-4-yl)methyl)-1-((1-(fluoromethyl)cyclopropyl)methyl)-1H-benzo[d]imidazole-6-carboxylic acid]",12700,1 to 5,–,–,–,–
"COc1cc(C(=O)O)cc2c1nc(Cc1c(F)cc(-c3nc(OCc4ccc(Cl)cc4F)ncc3F)c3c1CCO3)n2C[C@@H]1CCO1 [Compound 118, (S)-2-((7-(2-((4-chloro-2-fluorobenzyl)oxy)-5-fluoropyrimidin-4-yl)-5-fluoro-2,3-dihydrobenzofuran-4-yl)methyl)-4-methoxy-1-(oxetan-2-ylmethyl)-1H-benzo[d]imidazole-6-carboxylic acid]",8300,≤ 1,Ratio ≥10,–,–,–
"COc1cc(C(=O)O)cc2c1nc(Cc1c(F)cc(-c3ccc(F)c(OCc4ccc(Cl)cc4F)n3)c3c1CCO3)n2C[C@@H]1CCO1 [Compound 101, (S)-2-((7-(6-((4-chloro-2-fluorobenzyl)oxy)-5-fluoropyridin-2-yl)-5-fluoro-2,3-dihydrobenzofuran-4-yl)methyl)-4-methoxy-1-(oxetan-2-ylmethyl)-1H-benzo[d]imidazole-6-carboxylic acid]",22500,≤ 1,Ratio ≥10,97,89,75
"COc1cc(C(=O)O)cc2c1nc(Cc1c(F)cc(-c3cccc(OCc4ccc(C#N)cc4F)n3)c3c1CCO3)n2CC1(CF)CC1 [Compound 93, 2-((7-(6-((4-Cyano-2-fluorobenzyl)oxy)pyridin-2-yl)-5-fluoro-2,3-dihydrobenzofuran-4-yl)methyl)-1-((1-(fluoromethyl)cyclopropyl)methyl)-4-methoxy-1H-benzo[d]imidazole-6-carboxylic acid]",8440,≤ 1,–,–,–,–
"COc1cc(C(F)(F)F)ccc1COc1cccc(-c2cc(F)c(Cc3nc4c(OC)cc(C(=O)O)cc4n3CC3(CF)CC3)c3c2OCC3)n1 [Compound 89, 2-((5-Fluoro-7-(6-((2-methoxy-4-(trifluoromethyl)benzyl)oxy)pyridin-2-yl)-2,3-dihydrobenzofuran-4-yl)methyl)-1-((1-(fluoromethyl)cyclopropyl)methyl)-4-methoxy-1H-benzo[d]imidazole-6-carboxylic acid]",14100,≤ 1,–,–,–,–
"COc1cc(C(F)(F)F)ccc1COc1cccc(-c2cc(F)c(Cc3nc4ccc(C(=O)O)cc4n3CC3(CF)CC3)c3c2OCC3)n1 [Compound 83, 2-((5-Fluoro-7-(6-((2-methoxy-4-(trifluoromethyl)benzyl)oxy)pyridin-2-yl)-2,3-dihydrobenzofuran-4-yl)methyl)-1-((1-(fluoromethyl)cyclopropyl)methyl)-1H-benzo[d]imidazole-6-carboxylic acid]",14000,–,–,–,–,–
COc1cc(C(=O)O)cc2c1nc(Cc1c(F)cc(-c3nc(OCc4ccc(C)cc4F)ncc3F)c3c1CCO3)n2C[C@@H]1CCO1 [Compound 134],15700,≤ 1,Ratio ≥10,–,–,–
"O=C(O)c1cc(OCC(F)F)c2nc(Cc3c(F)cc(-c4cccc(OCc5ccc(Cl)cc5OC(F)F)n4)c4c3OCO4)n(CC3(CF)CC3)c2c1 [Compound 86, 2-((7-(6-((4-Chloro-2-(difluoromethoxy)benzyl)oxy)pyridin-2-yl)-5-fluoro-benzo[d][1,3]dioxolan-4-yl)methyl)-4-(2,2-difluoroethoxy)-1-((1-(fluoromethyl)cyclopropyl)methyl)-1H-benzo[d]imidazole-6-carboxylic acid]",–,1 to 5,–,–,–,–
"CCOc1cc(C(=O)O)cc2c1nc(Cc1c(F)cc(-c3ccc(F)c(OCc4ccc(Cl)cc4F)n3)c3c1CCO3)n2C[C@@H]1CCO1 [Compound 122, (S)-2-((7-(6-((4-chloro-2-fluorobenzyl)oxy)-5-fluoropyridin-2-yl)-5-fluoro-2,3-dihydrobenzofuran-4-yl)methyl)-4-ethoxy-1-(oxetan-2-ylmethyl)-1H-benzo[d]imidazole-6-carboxylic acid]",–,1 to 5,Ratio ≥10,–,–,–
"COc1cc(C(F)(F)F)ccc1COc1cccc(-c2cc(F)c(Cc3nc4c(OC)cc(C(=O)O)cc4n3C[C@@H]3CCO3)c3c2OCC3)n1 [Compound 80, (S)-2-((5-fluoro-7-(6-((2-methoxy-4-(trifluoromethyl)benzyl)oxy)pyridin-2-yl)-2,3-dihydrobenzofuran-4-yl)methyl)-4-methoxy-1-(oxetan-2-ylmethyl)-1H-benzo[d]imidazole-6-carboxylic acid]",–,≤ 1,Ratio ≥10,–,–,–
"COc1cc(C(=O)O)cc2c1nc(Cc1c(F)cc(-c3cccc(OCc4ccc(Cl)cc4F)c3)c3c1CCO3)n2C[C@@H]1CCO1 [Compound 107, (S)-2-((7-(3-((4-chloro-2-fluorobenzyl)oxy)phenyl)-5-fluoro-2,3-dihydrobenzofuran-4-yl)methyl)-4-methoxy-1-(oxetan-2-ylmethyl)-1H-benzo[d]imidazole-6-carboxylic acid]",–,1 to 5,–,–,–,–
"COc1cc(C(=O)O)cc2c1nc(Cc1c(F)cc(-c3cccc(OCc4ccc(Cl)cc4F)n3)c3c1CCO3)n2CC1(CF)CC1 [Compound 92, 2-((7-(6-((4-Chloro-2-fluorobenzyl)oxy)pyridin-2-yl)-5-fluoro-2,3-dihydrobenzofuran-4-yl)methyl)-1-((1-(fluoromethyl)cyclopropyl)methyl)-4-methoxy-1H-benzo[d]imidazole-6-carboxylic acid]",23700,–,–,–,–,–
"CC(c1ccc(-c2cccc(OCc3ccc(C#N)cc3F)n2)c2c1CCO2)c1nc2ccc(C(=O)O)cc2n1C[C@@H]1CCO1 (stereo partly drawn) [Compound 6, 2-(1-(7-(6-((4-cyano-2-fluorobenzyl)oxy)pyridin-2-yl)-2,3-dihydrobenzofuran-4-yl)ethyl)-1-(((S)-oxetan-2-yl)methyl)-1H-benzo[d]imidazole-6-carboxylic acid]",–,5 to 10,–,–,–,–
